In patent publication US20110250184A1, “METHODS FOR DETERMINING EFFICACY OF A THERAPEUTIC REGIMEN AGAINST DELETERIOUS EFFECTS OF CYTOTOXIC AGENTS IN HUMAN” (priority 2008, published 2011):
Entries after “also recorded” stand apart in the source; their conditions may differ.

Tests used:
human bone marrow cells [1] = test: Cytotoxicity to human bone marrow cells (methocult, total colony forming units); type: cell-based; conditions: 2 and 24 hours treatment, up to 20 μM; sodium salt
Experimental: FIG. 2. ON 01210.Na is not cytotoxic to human bone marrow cells in vitro. Human bone marrow cells were treated with various concentrations of ON 01210.Na for (A) 2 hrs or (B) 24 hrs. The cells were then plated into methocult medium. Total colony forming units were determined 14 days later.
The ability of ON 01210.Na to protect primary human bone marrow cells from cytotoxic doses of radiation was studied in an in vitro assay. Initially, cytotoxicity studies were performed. Human bone marrow cells isolated from healthy volunteers were treated with increasing concentrations of ON 01210.Na for 2 and 24 hours and plated into methocult.
FIG. 2. ON 01210.Na was not cytotoxic to human bone marrow cells in vitro. Human bone marrow cells were treated with various concentrations of ON 01210.Na for (A) 2 hrs or (B) 24 hrs. The cells were then plated into methocult medium. Total colony forming units were determined 14 days later.

human bone marrow cells [2] = test: In vitro radiation protection of human bone marrow cells (methocult CFU); type: cell-based
Experimental: FIG. 3. In vitro radiation protection of human bone marrow cells. Human bone marrow cells were treated with increasing concentrations of ON 01210.Na for 3 hours, and then irradiated with increasing doses of ionizing radiation. The cells were plated into methocult and the total number of CFUs was determined 14 days later.
Radiation protection assays were then performed (FIG. 3). Cells were treated with ON 01210.Na for 3 hours, irradiated, and plated in methocult. The total number of colony forming units was determined 14 days later. […] This compared very favorably when analyzed against protection studies using amifostine as a positive control.
Human bone marrow cells were treated with increasing concentrations of ON 01210.Na for 3 hours, and then irradiated with increasing doses of ionizing radiation. The cells were plated into methocult and the total number of CFUs was determined 14 days later.
When we plotted the survival curve at the optimal concentration of ON 01210.Na (FIG. 3C) we were able to calculate a dose reduction factor (DRF) of 1.6. We also tested the radiation protection activity of amifostine. Amifostine concentrations were selected that closely mimicked the therapeutic plasma concentrations. […] The calculated DRF value of 1.5 was determined from these experiments.

white blood cells = test: White blood cell counts of irradiated mice; type: in vivo, C3H/HEJ mice
Experimental: FIG. 4. ON 01210.Na protects the bone marrow of irradiated mice. A. Mice were injected with 500 mg/kg of ON 01210.Na formulated in 1% Polysorbate 80/K-phosphate buffer or vehicle alone by sc injections minus 24 hrs and minus 15 minutes before 5.5 Gy of whole body ionizing radiation treatment. Whole blood was collected on the indicted days and WBC counts were performed following RBC lysis. The data is plotted as the average of three mice per group +/−SEM (N:3×3=9 plates). B. Pictures of representative plates. […] C. White blood cell counts. Whole blood was collected on the indicted days and WBC counts were performed following RBC lysis. The data is plotted as the average of 3 mice per group±SEM (N=3).
A. Mice were injected with 500 mg/kg of ON 01210.Na formulated in 1% Polysorbate 80/K-phosphate buffer or vehicle alone by sc injections minus 24 hrs and minus 15 minutes before 5.5 Gy of whole body ionizing radiation treatment. Whole blood was collected on the indicted days and WBC counts were performed following RBC lysis. The data is plotted as the average of three mice per group+/−SEM (N:3×3=9 plates). […]
In addition to examining the ability of ON 01210.Na to protect bone marrow cells, the protection of peripheral white blood cells was also examined. Whole blood was collected and the total number of white blood cells was determined at various times after radiation exposure.

human skin fibroblasts = test: In vitro clonogenic survival assay, skin fibroblasts; type: cell-based
[3] = Free radical scavenger / antioxidant activity
cells = type: cell-based
human bone marrow cells [4] = test: In vitro radiation protection of human bone marrow cells (methocult CFU); type: cell-based; conditions: 3 hour treatment, no radiation, all concentrations tested; sodium salt

SMILES: O=C([O-])c1ccc(/C=C/S(=O)(=O)Cc2ccc(Cl)cc2)cc1.[Na+] [ON 01210.Na, E-4-Carboxystyryl-4-chlorobenzylsulfone sodium salt]
- cytotoxicity to human bone marrow cells (total colony forming units) (human bone marrow cells [1]): non cytotoxic; also recorded: not cytotoxic; also recorded: nontoxic
- range of concentrations that protected cells (human bone marrow cells [2]): 10 fold
- optimal concentration for radiation protection (human bone marrow cells [2]; 3 hours treatment): 10 µM
- radiation protection of human bone marrow cells (human bone marrow cells [2]; 3 hours treatment before irradiation, sodium salt): protect human bone marrow cells in a dose dependent manner; also recorded: protected human bone marrow cells in a dose responsive manner; also recorded: very effective; also recorded: reproducibly protect
- dose reduction factor (DRF) (human bone marrow cells [2]; ON 01210.Na 10 μM (optimal), 3 hours before irradiation): 1.6
- protection of white blood cells from radiation exposure (white blood cells; 500 mg/kg sc -24 h and -15 min before 5.5 Gy IR, sodium salt): significantly protected
- recovery of white cell numbers (white blood cells; by 18 days): more rapid recovery
- protection from radiation exposure (clonogenic survival) (human skin fibroblasts): protected
- activity as a free radical scavenger or antioxidant [3]: did not exhibit any significant activity
- cell cycle arrest (cells): did not cause cell cycle arrest
- cytotoxicity (cells): not cytotoxic
- toxicity of treatment without radiation (human bone marrow cells [4]): non-toxic at all concentrations tested; also recorded: completely safe
